Common to all, as to experiment: growth of human tumour cells (NCI), 48 h
Experiment [1] relates to MALME-3M melanoma.
For experiment [2], the system named is OVCAR-5 ovarian.
In experiment [3] the test system is DLD-1 colon.
Experiment [4] deals with HT29 colon.
In experiment [5] the test system is SF-295 CNS.
Experiment [6] relates to SK-MEL-2 melanoma.
Experiment [7] has as its system KM20L2 colon.
Experiment [8] relates to DU-145 prostate.
Experiment [9] has as its system MDA-MB-231 breast.
Experiment [10] has as its system MCF7 breast.

Where “and” joins values, the source holds several entries; their conditions need not be identical. Equal entries are not always repeated.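 These data come from cells grown in 96-well plates and exposed to compound for 48 hours at five concentrations. GI50 = concentration required for 50% inhibition of growth. Definition used: TGI = concentration required for complete inhibition of growth.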 Bounds are passed on as bounds.

The source of these data is PubChem BioAssay (NCI).

On to `CCc1ccccc1-n1c2nc(=O)n(C)c(=O)c-2nc2ccccc21`, for which the TGI in experiment [1] came out at 18.2 µM; in [2], 34.3 µM; in experiment [3], 45.2 µM; in experiment [4], 14.3 µM; in [5] it was 24 µM; in experiment [6], 39.1 µM.
With `O=C(/C=C/c1c(O)ccc2ccccc12)c1cccc2ccccc12`, the TGI in experiment [1], in experiment [2], in experiment [3], in experiment [4], in [7] and in experiment [5] was greater than 100 µM in each case. This molecule came in with a TGI in experiment [6] greater than 100 µM.
Regarding `O=C(CCc1ccccc1)On1nnc2ccccc2c1=O`, the TGI in [1], in experiment [2], in experiment [3], in experiment [4], in [7] and in [5] was greater than 100 µM throughout. In addition, the TGI in experiment [6] was greater than 100 µM.
Take `COc1ccc(/C(Cl)=C(\C=O)c2ccc(Br)cc2)cc1OC`: the TGI is greater than 100 µM in [1]; greater than 100 µM in [2]; greater than 100 µM in [3]; greater than 100 µM in experiment [4]; greater than 100 µM in experiment [7]; 67.9 µM in [5]. The molecule also yielded a TGI in experiment [6] of 74.4 µM.
As for `O=C1OC(c2ccccc2)=N/C1=C\c1c(O)cc(O)cc1O`, the TGI in experiment [1], in experiment [2], in experiment [4], in experiment [7] and in experiment [6] was greater than 100 µM in each case.
With `Cc1cccc2c1Oc1cc(Cl)ccc1C2NC(=O)CN(C)C` (stereo not drawn), the TGI in experiment [2] was greater than 100 µM; in [3] it was greater than 100 µM; in [4] it was greater than 100 µM; in experiment [7], 41.2 µM.
As for `CC1=Nc2c([nH]c(=S)[nH]c2=O)NC(c2ccc(Cl)c(Cl)c2)C1` (stereo not drawn), the TGI in [1] is greater than 100 µM; in experiment [2], greater than 100 µM; in [3], greater than 56.7 µM; in experiment [4] it was 59.6 µM; in experiment [7], greater than 62.9 µM; in experiment [5] it was 46.3 µM. This molecule displayed a TGI in [6] greater than 100 µM.
For the molecule `O=C(N/C(=C\c1ccc(Br)cc1)c1nc2ccccc2s1)c1ccccc1`, the TGI in [1], in experiment [2], in [3], in experiment [4], in [7] and in experiment [6] was greater than 100 µM in each case.
In the case of `Cc1[nH]c(=O)nc(CC(O)(c2ccccc2)c2ccccc2)c1-c1ccccc1`, the TGI in [1], in [2], in [3], in experiment [4], in experiment [7] and in [5] was greater than 100 µM throughout. Also, the TGI in experiment [6] was greater than 100 µM.
For `O=C1C=CN(C2OC(CO)C(O)C2O)C(=O)C1` (stereo not drawn), the TGI in experiment [2] is greater than 2500 µM; in experiment [8], greater than 819 µM; in experiment [3] it was 625 µM and > 2500 µM; in experiment [4], 625 µM and > 1730 µM; in experiment [9], greater than 2500 µM; in [7] it was 625 µM and > 1160 µM. The TGI in [10] is 625 µM and > 2500 µM; in experiment [5], 625 µM and > 2060 µM; in [6], 625 µM and > 2500 µM. For the same molecule, the GI50 in experiment [3] is 21.5 µM; in experiment [4], 13000 nM; in experiment [7], 19.9 µM; in [10], 4630 nM; in experiment [5], 116 µM and 59.1 µM; in experiment [6], 115 µM and 1040 µM.
Take `O=C(O)c1ccc(N=Nc2cc(S(=O)(=O)O)c3cccnc3c2O)cc1`: the TGI in experiment [1], in experiment [2], in [3], in experiment [4], in [7] and in experiment [5] was greater than 100 µM each time. Besides, in experiment [6], the TGI was greater than 100 µM.
Turning to `N#CCC(=O)N/N=C1/C(=O)NC(=O)C(=O)C1c1nc2ccccc2s1` (stereo not drawn), the TGI in experiment [1], in [2], in experiment [3], in experiment [4], in experiment [7] and in experiment [5] was greater than 100 µM throughout. The molecule also came in with a TGI in experiment [6] greater than 100 µM.
As for `CCOC(=O)C1=C(NC(C)(C)C)OCC1=O`, the TGI in experiment [1], in [2], in [3], in experiment [4], in experiment [7] and in [5] was greater than 100 µM throughout. This molecule also returned a TGI in experiment [6] greater than 100 µM.
Turning to `CN(/N=C/c1ccnc2ccccc12)c1ccc([N+](=O)[O-])cc1[N+](=O)[O-]`, the TGI in experiment [1], in experiment [2], in [3], in experiment [4], in experiment [7] and in [5] was greater than 100 µM each time. This molecule also gave a TGI in experiment [6] of 79.1 µM.
For the molecule `CN(C)c1nc(N(C)C)n2nc(-c3ccccc3[N+](=O)[O-])nc2n1`, the TGI in [1], in experiment [2], in [3], in experiment [4], in experiment [7] and in experiment [5] was greater than 100 µM throughout. The molecule further came in with a TGI in experiment [6] greater than 100 µM.
For `Fc1ccc(F)c(C2SCc3nc4ccccc4n32)c1` (stereo not drawn), the TGI in experiment [1], in [2], in experiment [3], in experiment [4], in experiment [7] and in experiment [5] was greater than 100 µM in each case.
For the molecule `COc1ccc(/C=C/c2nc(=S)[nH][nH]2)cc1`, the TGI in experiment [1], in [2], in experiment [3], in experiment [4], in [7] and in experiment [5] was greater than 100 µM throughout. In experiment [6], this molecule displayed a TGI greater than 100 µM.
Take `COC(=O)C1=C(c2cc(OC)c(OC)c(OC)c2)OC(c2cc(OC)c(OC)c(OC)c2)C1COC(C)=O` (stereo not drawn): the TGI in [1], in experiment [2], in experiment [3], in [4], in experiment [7] and in experiment [5] was greater than 100 µM throughout.
On to `OCC(O)COc1c(Cl)ccc(Cl)c1Cl` (stereo not drawn), for which the TGI in [1], in experiment [2], in experiment [3], in experiment [4], in experiment [7] and in [5] was greater than 100 µM in each case. The molecule further showed a TGI in experiment [6] greater than 100 µM.
For `COc1ccc(/C(Cl)=C(\C=O)c2ccc(OC)c(OC)c2)cc1OC`, the TGI is greater than 100 µM in [1]; greater than 48.7 µM in experiment [2]; greater than 100 µM in experiment [8]; greater than 100 µM in [3]; greater than 67.9 µM in experiment [4]; greater than 100 µM in [9]. For the same molecule, the TGI in experiment [7] was greater than 100 µM; in [10], greater than 100 µM; in experiment [5], 48.2 µM; in experiment [6], greater than 100 µM.
For `O=C(CCC(=O)N/N=C/c1ccccc1O)N/N=C/c1ccccc1O`, the TGI was greater than 100 µM in experiment [1]; greater than 100 µM in experiment [2]; greater than 100 µM in experiment [4]; greater than 100 µM in experiment [7]; greater than 100 µM in experiment [5]; 81.3 µM in experiment [6].
Consider `COC1(OC)CC2C(=O)N(Cc3ccccc3)C1CC2S(=O)(=O)c1ccccc1` (stereo not drawn), for which the TGI in [1], in [3], in [4], in experiment [5] and in experiment [6] was greater than 100 µM throughout.
`BrC(Br)(Br)c1cnc2ccccc2n1`: the GI50 in experiment [1] was 1550 nM; in [2] it was 2770 nM; in experiment [8], 2210 nM; in experiment [4], 1060 nM; in experiment [9] it was 1390 nM; in experiment [10], 1530 nM. The GI50 in [5] was 3.75 µM; in experiment [6], 2.72 µM. Further, the TGI was determined as 5.28 µM in experiment [1]; 7.45 µM in experiment [2]; 7.14 µM in experiment [8]; 2.67 µM in experiment [4]; 3.22 µM in [9]; 5.42 µM in experiment [10]. The TGI in experiment [5] worked out at 15.4 µM; in experiment [6] it was 7.4 µM.
As to `CCOC(=O)CC1=NC(=Nc2cc(Cl)ccc2Cl)SC1`, the TGI in experiment [1], in experiment [2], in experiment [3], in experiment [4], in experiment [7] and in experiment [5] was greater than 100 µM each time. The molecule also yielded a TGI in [6] greater than 100 µM.
Consider `O=C1/C(=C/c2ccc([N+](=O)[O-])s2)Oc2ccccc21`, for which the GI50 in [1] was 1390 nM; in experiment [2], 1780 nM; in [8] it was 2430 nM; in experiment [4], 771 nM; in experiment [9], 279 nM; in [10], 750 nM. Moreover, the GI50 was 2.07 µM in experiment [5] and 0.945 µM in [6]. The TGI in experiment [1] stood at 3.92 µM; in experiment [2] it was 3.53 µM; in experiment [8], 5.56 µM; in experiment [4], 4.67 µM; in [9], 0.818 µM; in experiment [10], 5.02 µM. Moreover, the TGI in [5] was determined as 4.63 µM; in experiment [6], 3.04 µM.
Turning to `C=CC[Se]C(=O)Cc1c(C)n(C(=O)c2ccc(Cl)cc2)c2ccc(OC)cc12`, the GI50 in experiment [1] is 1710 nM; in experiment [2], 1720 nM; in [8] it was 1900 nM; in [4], 3390 nM; in [9], 1660 nM; in [10] it was 1810 nM. Besides, the GI50 in [5] was 0.334 µM; in experiment [6], 1.94 µM. Also, the TGI in [1] is 3.45 µM; in [2], 3.21 µM; in experiment [8], 3.75 µM; in [4], greater than 100 µM; in experiment [9], 3.21 µM; in experiment [10], 4.17 µM. In addition, the TGI in experiment [5] came out at 1.45 µM; in experiment [6] it was 4.14 µM.
In the case of `C[C@H]1COC2(c3ccccc3)CCC(=O)N12` (stereo partly drawn), the TGI in experiment [1], in experiment [2], in experiment [3], in experiment [4], in [7] and in [5] was greater than 100 µM throughout. In experiment [6], this molecule yielded a TGI greater than 100 µM.
For the molecule `CCc1ccc(/C(C)=N/NC(N)=S)cc1`, the TGI in experiment [1] is greater than 100 µM; in experiment [2] it was 72.3 µM; in experiment [4] it was greater than 100 µM; in [7], greater than 100 µM; in experiment [5], greater than 100 µM; in experiment [6], greater than 100 µM.
As to `O=C(CCCNC(=O)OCc1ccccc1)OCc1ccc2c(c1)C(=O)c1ccccc1C2=O`, the TGI in experiment [1] is greater than 100 µM; in [2], greater than 100 µM; in experiment [3] it was greater than 100 µM; in experiment [4], greater than 100 µM; in experiment [7], greater than 100 µM; in experiment [5], 83.9 µM. In addition, the TGI in experiment [6] was greater than 100 µM.
